Data taken from the CheMixHub viscosity set.

Assay: xn = mol fraction of the nth substance listed

Clc1ccccc1 + CCOC(C)=O
viscosity [mPa·s], 101 kPa
Settings | 298.15 K | 308.15 K
x2 = 0.0415 | 0.729 | 0.658
x2 = 0.1504 | 0.669 | 0.607
x2 = 0.2503 | 0.621 | 0.567
x2 = 0.3519 | 0.58 | 0.531
x2 = 0.4264 | 0.553 | 0.507
x2 = 0.4878 | 0.534 | 0.489
x2 = 0.5527 | 0.515 | 0.472
x2 = 0.6519 | 0.489 | 0.448
x2 = 0.7505 | 0.468 | 0.428
x2 = 0.8515 | 0.449 | 0.409
x2 = 0.9389 | 0.436 | 0.396

CC1=CCC(=C(C)C)CC1 + Fc1ccccc1
viscosity [mPa·s], 101 kPa
Settings | x1 = 0.062 | x1 = 0.1294 | x1 = 0.2031 | x1 = 0.2839 | x1 = 0.3729 | x1 = 0.4714 | x1 = 0.5811 | x1 = 0.704 | x1 = 0.8425
303.15 K | 0.563 | 0.61 | 0.661 | 0.715 | 0.771 | 0.824 | 0.87 | 0.912 | 0.951
308.15 K | 0.53 | 0.572 | 0.621 | 0.672 | 0.725 | 0.774 | 0.818 | 0.855 | 0.889
313.15 K | 0.498 | 0.536 | 0.582 | 0.631 | 0.681 | 0.727 | 0.767 | 0.8 | 0.831

Clc1ccccc1 + Cc1ccccc1C
101 kPa
Settings | viscosity [mPa·s]
293.15 K, x1 = 0.1217 | 0.755
293.15 K, x1 = 0.2237 | 0.76
293.15 K, x1 = 0.4305 | 0.759
293.15 K, x1 = 0.5325 | 0.753
293.15 K, x1 = 0.6305 | 0.76
293.15 K, x1 = 0.7288 | 0.755
293.15 K, x1 = 0.8295 | 0.756
293.15 K, x1 = 0.9051 | 0.75
298.15 K, x1 = 0.1005 | 0.712
298.15 K, x1 = 0.2307 | 0.708
298.15 K, x1 = 0.3108 | 0.704
298.15 K, x1 = 0.4337 | 0.706
298.15 K, x1 = 0.5454 | 0.705
298.15 K, x1 = 0.6079 | 0.705
298.15 K, x1 = 0.7762 | 0.706
298.15 K, x1 = 0.8807 | 0.705
303.15 K, x1 = 0.1214 | 0.66
303.15 K, x1 = 0.2389 | 0.666
303.15 K, x1 = 0.3117 | 0.653
303.15 K, x1 = 0.4128 | 0.657
303.15 K, x1 = 0.5674 | 0.653
303.15 K, x1 = 0.6882 | 0.661
303.15 K, x1 = 0.7891 | 0.661
303.15 K, x1 = 0.9156 | 0.66

Clc1cccc2ccccc12 + CCCCCO
viscosity [mPa·s], 101.33 kPa
Settings | x1 = 0.1019 | x1 = 0.1914 | x1 = 0.3014 | x1 = 0.371 | x1 = 0.4944 | x1 = 0.6006 | x1 = 0.6961 | x1 = 0.7909 | x1 = 0.9013
298.15 K | 3.204 | 3.078 | 2.928 | 2.833 | 2.708 | 2.669 | 2.659 | 2.702 | 2.761
303.15 K | 2.83 | 2.704 | 2.555 | 2.473 | 2.388 | 2.364 | 2.358 | 2.393 | 2.464
308.15 K | 2.469 | 2.37 | 2.232 | 2.179 | 2.115 | 2.107 | 2.107 | 2.134 | 2.217

COC(C)(C)C + CCC(C)O
298.15 K, 101 kPa
Settings | viscosity [mPa·s]
x1 = 0.0999 | 2.16
x1 = 0.1992 | 1.57
x1 = 0.2992 | 1.16
x1 = 0.3976 | 0.91
x1 = 0.503 | 0.725
x1 = 0.6017 | 0.609
x1 = 0.6989 | 0.518
x1 = 0.7986 | 0.443
x1 = 0.8979 | 0.384

Clc1ccccc1 + CCC(C)=O
303.15 K, 101 kPa
Settings | viscosity [mPa·s]
x2 = 0.0982 | 0.686
x2 = 0.247 | 0.636
x2 = 0.3771 | 0.593
x2 = 0.5481 | 0.541
x2 = 0.6776 | 0.499
x2 = 0.8508 | 0.482

CCc1ccccc1 + CCCCO
298.15 K, 101.33 kPa
Settings | viscosity [mPa·s]
x2 = 0.1608 | 0.666
x2 = 0.2901 | 0.735
x2 = 0.4235 | 0.849
x2 = 0.5335 | 0.999
x2 = 0.6392 | 1.183
x2 = 0.7407 | 1.435
x2 = 0.8339 | 1.756
x2 = 0.9191 | 2.126

CCc1ccccc1 + Cc1ccccc1
Settings | viscosity [mPa·s]
293.15 K, 101.33 kPa, x2 = 0.1809 | 0.652
293.15 K, 101.33 kPa, x2 = 0.3695 | 0.636
293.15 K, 101.33 kPa, x2 = 0.5187 | 0.623
293.15 K, 101.33 kPa, x2 = 0.6606 | 0.611
293.15 K, 101.33 kPa, x2 = 0.8474 | 0.597
298 K, 101 kPa, x2 = 0.1175 | 0.6248
298 K, 101 kPa, x2 = 0.2654 | 0.6174
298 K, 101 kPa, x2 = 0.4661 | 0.6001
298 K, 101 kPa, x2 = 0.5586 | 0.5944
298 K, 101 kPa, x2 = 0.6327 | 0.5864
298 K, 101 kPa, x2 = 0.8164 | 0.5675
298 K, 101 kPa, x2 = 0.9082 | 0.5576
298 K, 101 kPa, x2 = 0.9658 | 0.5598
298.15 K, 101.3 kPa, x2 = 0.1427 | 0.6196
298.15 K, 101.3 kPa, x2 = 0.2444 | 0.609
298.15 K, 101.3 kPa, x2 = 0.3777 | 0.5992
298.15 K, 101.3 kPa, x2 = 0.4928 | 0.5905
298.15 K, 101.3 kPa, x2 = 0.5425 | 0.5867
298.15 K, 101.3 kPa, x2 = 0.6355 | 0.5789
298.15 K, 101.3 kPa, x2 = 0.7353 | 0.5716
298.15 K, 101.3 kPa, x2 = 0.8573 | 0.5614
298.15 K, 101.3 kPa, x2 = 0.9453 | 0.5549
298.15 K, 101.33 kPa, x2 = 0.1308 | 0.623
298.15 K, 101.33 kPa, x2 = 0.2529 | 0.616
298.15 K, 101.33 kPa, x2 = 0.3685 | 0.604
298.15 K, 101.33 kPa, x2 = 0.4784 | 0.592
298.15 K, 101.33 kPa, x2 = 0.6663 | 0.58
298.15 K, 101.33 kPa, x2 = 0.8024 | 0.568
298.15 K, 101.33 kPa, x2 = 0.9209 | 0.56
303.15 K, 101.3 kPa, x2 = 0.0366 | 0.5902
303.15 K, 101.3 kPa, x2 = 0.1427 | 0.5808
303.15 K, 101.3 kPa, x2 = 0.2444 | 0.5729
303.15 K, 101.3 kPa, x2 = 0.3777 | 0.5639
303.15 K, 101.3 kPa, x2 = 0.4928 | 0.5556
303.15 K, 101.3 kPa, x2 = 0.5425 | 0.5522
303.15 K, 101.3 kPa, x2 = 0.6355 | 0.545
303.15 K, 101.3 kPa, x2 = 0.7353 | 0.5371
303.15 K, 101.3 kPa, x2 = 0.8573 | 0.528
303.15 K, 101.3 kPa, x2 = 0.9453 | 0.5223
303.15 K, 101.33 kPa, x2 = 0.1809 | 0.581
303.15 K, 101.33 kPa, x2 = 0.3695 | 0.565
303.15 K, 101.33 kPa, x2 = 0.5187 | 0.554
303.15 K, 101.33 kPa, x2 = 0.6606 | 0.546
303.15 K, 101.33 kPa, x2 = 0.8474 | 0.533
313.15 K, 101.33 kPa, x2 = 0.1809 | 0.52
313.15 K, 101.33 kPa, x2 = 0.3695 | 0.505
313.15 K, 101.33 kPa, x2 = 0.5187 | 0.496
313.15 K, 101.33 kPa, x2 = 0.6606 | 0.49
313.15 K, 101.33 kPa, x2 = 0.8474 | 0.479
323.15 K, 101.33 kPa, x2 = 0.1809 | 0.46
323.15 K, 101.33 kPa, x2 = 0.3695 | 0.459
323.15 K, 101.33 kPa, x2 = 0.5187 | 0.447
323.15 K, 101.33 kPa, x2 = 0.6606 | 0.443
323.15 K, 101.33 kPa, x2 = 0.8474 | 0.43
